Where “and” joins values, the source holds several entries; their conditions need not be identical. Identical values can stand only once. Like-named read-outs stand apart in the source and are kept apart here.
Assays:
AOM-induced colon tumors = tested on: AOM-induced colon tumors
Procedure: After 42 weeks of experimental diet feeding and total 52 weeks of experimental duration, the rats were necropsied. After necropsy of the rats, the colonic tumors were analyzed histologically. Histopathological evaluation colonic tumor has been completed by two pathologists independently. Colonic tumors were histopathologically classified to adenomas or adenocarcinomas either exophytic (non-invasive) or endophytic (invasive).
Colonic tumors (CTs) were induced by colon specific carcinogen, azoxymethane (AOM) (15 mg/kg by wt, once weekly for 2 weeks) in F344 rats at 8 weeks' age. […] Rats were killed by CO2 asphyxiation 36 weeks after second AOM and the colons were removed, rinsed in PBS, opened longitudinally, and flattened on a filter paper. The location and size of each tumor were noted. Tumors were removed, snap frozen, or fixed in 10% buffered formalin for 24 hours and transferred to 80% ethanol for histopathological analysis. The number and type of colon tumors (adenoma and adenocarcinoma) were analyzed histologically blinded to treatment groups and compared with control diet fed rat colonic tumors.

[1] = tested on: inflammatory cytokines and receptors; conditions: 800 ppm in diet, AOM-induced rat colon tumors
Procedure: Colonic tumors (CTs) were induced by colon specific carcinogen Azoxymethane (15 mg/kg by wt, once weekly for 2 weeks) in F344 rats at 8 weeks' age. […] Rats were killed 36 weeks after second AOM and analyzed for inflammatory cytokines and receptors and compared with control diet fed rat colonic tumors.

[2] = stored in food cups for seven days
Procedure: Then aliquots of samples taken from the top, middle and bottom portions of the diets were analyzed for agents homogeneity of the experimental diets. […] Based on this information, frequency of preparation of experimental diets was once a week, and food cups were changed 3 times a week.

[3] = tested on: AOM plus DSS induced colonic inflammation; conditions: for AOM-DSS-Induced Inflammation Score: two weeks, male F344 rats
Procedure: Male F344 rats at 8 weeks of age treated with AOM (15 mg/Kg BW) and exposed to 2% DSS for three days. […] Further, the inflammation was scored by following below criteria:
Inflammation Score based on histological observations using the modified Sydney classification for colonic inflammation:
Following score criteria has been applied: • i. Score 0: No inflammation or changes in the colonic crypt morphology • ii. Score 1. Presence of neutrophil infiltration and chronic lymphocytic inflammation. • iii. Score 2. Surface epithelial damage, mild atrophy, lymphoid follicles • iv. Score 3: Severe atrophy and intestinal metaplasia.

[4] = tested on: small intestinal polyps and colon tumors of Apc Min/+ mice; conditions: for intestinal tumor inhibition: high-dose (700 ppm)
Procedure: Male Apc^Min/+ (C57BL/6J) and female wild-type littermate mice were initially purchased from The Jackson Laboratory (Bar Harbor, Me.) as founders, and our own breeding colony was established in OUHSC rodent barrier facility and genotyped according to vendor's instructions. All mice were housed 3 per cage in ventilated cages under standardized conditions (21° C., 60% relative humidity, 12 h light/12 h dark cycle, 20 air changes/hr). All mice were allowed ad libitum access to the respective diets and automated tap water purified by reverse osmosis.
All diet ingredients for the semi-purified diets were purchased from Bioserve (Frenchtown, N.J.) and stored at 4° C. before diet preparation. Diets were based on the modified American Institute of Nutrition (AIN)-76A diet. […] Both control and experimental diets were prepared weekly and stored in a cold room. Agent content in the experimental diets was determined periodically in multiple samples taken from the top, middle, and bottom portions of individual diet preparations to verify uniform distribution.
Genotyped Male and female Apc^Min/+ mice were used in the efficacy study. Five week old mice were distributed so that average body weights in each group were equal (10/9 Apc^Min/+ mice in each group) and were fed with AIN-76A diet for one week. […] Body weight, food, and fluid consumption were monitored weekly for signs of weight loss or lethargy that might indicate intestinal obstruction or anemia. Mice were routinely checked for any abnormalities. After 12 weeks, all mice were euthanized by CO2 asphyxiation, blood was collected immediately by heart puncture, and serum was separated by centrifugation and stored at −80° C. until further analysis. […] After necropsy, the entire intestinal tract was harvested, flushed with 0.9% NaCl and opened longitudinally from the esophagus to the distal rectum. The tissue was flattened on filter paper to expose the tumors and briefly frozen on dry ice to aid visual scoring of tumors. The number, location, and size of visible tumors in the entire intestine were determined under a dissection microscope (×5). All tumors were scored and subdivided by location (duodenal, jejunal and ileum and colon) and size (>2 mm, 1-2 or <1 mm in diameter). This procedure was completed by two individuals who were blinded to the experimental group and the genetic status of the mice. Colonic and other small intestinal tumors that required further histopathologic evaluation to identify adenoma, adenocarcinoma, and enlarged lymph nodes were fixed in 10% neutral-buffered formalin, embedded in paraffin blocks, and processed by routine H&E staining.
All results are expressed as mean±SE and were analyzed by Student's t test. Differences were considered significant at the P<0.05 level.

[5] = 800 ppm in diet, AOM-treated male F344 rats
[6] = 800 ppm in diet, saline treated male F344 rats
[7] = 350 and 700 ppm, female Apc Min/+ mice
[8] = 350 ppm in diet, female Apc Min/+ mice
[9] = 350 ppm in diet, male Apc Min/+ mice

CC1(C)Cc2c(-c3ccccc3)c(-c3ccc(Cl)cc3)c(CC(=O)NCC(=O)O)n2C1 [LFA-9, licofelone-glycine]
Total CRC Tumors (Adenoma + AdCa) incidence (rats with tumors/rats) (AOM-induced colon tumors; 400 ppm in diet, AOM-treated male F344 rats): 12/30 | % AdCA Inhibition (incidence) (AOM-induced colon tumors; [5]): 76% | % AdCA Inhibition (multiplicity) (AOM-induced colon tumors; [5]): 85.7% | % Inv AdCA Inhibition (incidence) (AOM-induced colon tumors; [5]): 92.5% | % Inv AdCA Inhibition (multiplicity) (AOM-induced colon tumors; [5]): 94.0% | % Non-Inv AdCA Inhibition (incidence) (AOM-induced colon tumors; [5]): 72.3% | % Non-Inv AdCA Inhibition (multiplicity) (AOM-induced colon tumors; [5]): 82.0% | % adenoma Inhibition (incidence) (AOM-induced colon tumors; [5]): 58.2% | % adenoma Inhibition (multiplicity) (AOM-induced colon tumors; [5]): 42% | % of CRC Tumor Inhibition (incidence) (AOM-induced colon tumors; [5]): 47.5% | % of CRC Tumor Inhibition (multiplicity) (AOM-induced colon tumors; [5]): 71.1% and 71.07% | AdCA Incidence (% Rats with AdCa) (AOM-induced colon tumors; [5]): (20.0%) | AdCA Incidence (rats with AdCa/rats) (AOM-induced colon tumors; [5]): 6/30 | AdCA Multiplicity (Mean ± SEM) (AOM-induced colon tumors; [5]): 0.23±0.05 Tumors/Rat | Adenoma Incidence (% Rats with Adenomas) (AOM-induced colon tumors; [5]): (26.7%) | Adenoma Incidence (rats with adenomas/rats) (AOM-induced colon tumors; [5]): 8/30 | Adenoma Multiplicity (Mean ± SEM) (AOM-induced colon tumors; [5]): 0.47±0.06 Tumors/Rat | Invasive AdCA Incidence (% Rats with Invasive AdCa) (AOM-induced colon tumors; [5]): (3.33%) | Invasive AdCA Incidence (rats with Invasive AdCa/rats) (AOM-induced colon tumors; [5]): 1/30 | Invasive AdCA Multiplicity (Mean ± SEM) (AOM-induced colon tumors; [5]): 0.03 ± 0.01 Tumors/Rat | Multiplicity Total CRC Tumors (Adenoma + AdCa) (Mean ± SEM) (AOM-induced colon tumors; [5]): 0.70 ± 0.10 Tumors/Rat | Non-Inv AdCa Incidence (% Rats with Non-Inv AdCa) (AOM-induced colon tumors; [5]): (20.0%) | Non-Inv AdCa Incidence (rats with Non-Inv AdCa/rats) (AOM-induced colon tumors; [5]): 6/30 | Non-Inv AdCa Multiplicity (Mean ± SEM) (AOM-induced colon tumors; [5]): 0.20 ± 0.04 Tumors/Rat | Total CRC Tumors (Adenoma + AdCa) incidence (% rats) (AOM-induced colon tumors; [5]): (46.6%) | Total CRC Tumors (Adenoma + AdCa) incidence (rats with tumors/rats) (AOM-induced colon tumors; [5]): 14/30 | AdCA Incidence (AOM-induced colon tumors; [6]): 0 | AdCA Multiplicity (AOM-induced colon tumors; [6]): 0 Tumors/Rat | Adenoma Incidence (AOM-induced colon tumors; [6]): 0 | Adenoma Multiplicity (AOM-induced colon tumors; [6]): 0 Tumors/Rat | Invasive AdCA Incidence (AOM-induced colon tumors; [6]): 0 | Invasive AdCA Multiplicity (AOM-induced colon tumors; [6]): 0 Tumors/Rat | Multiplicity Total CRC Tumors (Adenoma + AdCa) (AOM-induced colon tumors; [6]): 0 Tumors/Rat | Non-Inv AdCa Incidence (AOM-induced colon tumors; [6]): 0 | Non-Inv AdCa Multiplicity (AOM-induced colon tumors; [6]): 0 Tumors/Rat | Total CRC Tumors (Adenoma + AdCa) incidence (AOM-induced colon tumors; [6]): 0 | body weight retardation and observable toxicities (AOM-induced colon tumors; chronic administration up to 800 ppm in diet, F344 rats): did not show any significant body weight retardation and any observable toxicities | inflammatory cytokines and their receptors (PCR array) in colon tumors versus control [1]: significantly decreased | stability in diet [2]: > 96% | AOM-DSS-Induced Inflammation Score ([3]; 100 ppm in diet): 1 | AOM-DSS-Induced Inflammation Score ([3]; 200 ppm in diet): 0 to 1 | AOM-DSS-Induced Inflammation Score ([3]; 400 ppm in diet): 0 | AOM-DSS-Induced Inflammation Score ([3]; 600 ppm in diet): 0 | AOM-DSS-Induced Inflammation Score ([3]; 800 ppm in diet): 0 | infiltration of inflammatory cells in colonic mucosa and submucosa ([3]; >100 ppm in diet, AOM-DSS rats): significantly suppressed infiltration of inflammatory cells | inflammation ([3]; >100 ppm in diet, AOM/DSS rats): completely blocked inflammation | inflammation score ([3]; all rats fed LFA-9, lowest to highest doses (100-800 ppm)): Score 1 (lowest to highest doses) or no inflammation | toxicity in male F344 rats ([3]; up to 800 ppm in diet): did not induce significant toxicity | colonic tumors per mouse [4, 7]: 0.1 tumors per mouse | reduction in the colonic tumors [4, 7]: 90% | colon tumor inhibition [4, 8]: 90% | fewer polyps with sizes greater than 2 mm [4, 8]: 81.6% | colon tumor inhibition [4, 9]: 60% | fewer polyps with sizes greater than 2 mm [4, 9]: 76.8% | total intestinal tumors (polyps), means±SEM [4, 9]: 31.6±5.99 | suppression of polyps of greater than 2 mm size ([4]; 700 ppm in diet, both genders, Apc Min/+ mice): more than 81% | inhibition of colon tumors ([4]; 700 ppm in diet, both male and female Apc Min/+ mice): 91% | total intestinal tumors (polyps), means±SEM ([4]; 700 ppm in diet, female Apc Min/+ mice): 15.5±1.79 | total intestinal tumors (polyps), means±SEM ([4]; 700 ppm in diet, male Apc Min/+ mice): 24.3±3.7 | body weights of Apc Min/+ mice versus control diet ([4]; LFA-9 in diet (350, 700 ppm)): higher weight gains | intestinal tumor inhibition ([4]; female Apc Min/+ mice): 73.8% | intestinal tumor inhibition ([4]; male Apc Min/+ mice): approximately 56% | gross changes attributable to toxicity in liver, kidneys or lungs; body weight gain ([4]; wild-type mice): did not produce any gross changes attributable to toxicity
